Data reported in article PMC3352927, “Development and Validation of an Automated High-Throughput System for Zebrafish In Vivo Screenings” (PLoS ONE, 2012).
“Also recorded” adds a separate entry of the source. Counter-ions that a name gives are not always drawn. Like-named read-outs stand apart in the source and are kept apart here.

Assays:
48 hpf zebrafish embryos = conditions: for Cardiotoxic effect in zebrafish: blind screened between 1 and 200 µM, predominant effect
Description: The image analysis program for the Cardiotoxicity assay was based on the processing of the videos to obtain a periodic signal of the cardiac motion automatically and independent to the embryo position.
The detection of the heart beat frequency was based on the frequency spectrum analysis of the Euclidean Distance (ED) signal (built as the ED between the frames of the video referred to a reference frame calculated with the mean values of intensity for homogeneous zones). Obtaining the periodogram using the Discrete Fourier Transform (DFT), and modifying it to avoid undesired effects, the heart beat frequency was given by its first significant frequency (Figure 3 A).
For embryos with arrhythmia (A), the sinusoidal course of the ED signal was disrupted due to the irregular beating of the heart, i.e. the different beating frequency of each chamber. The classification of the arrhythmia cases was therefore based on the number of significant frequencies detected in the DFT of the ED signal (Figure 3 B).
Embryos at 48 hpf were automatically dispensed in a 96 well plate discarding exterior columns and rows and volume was leveled to 50µl with E3. Compounds were prepared 200 times concentrated in DMSO. A 1∶100 dilution was automatically made from the stock and 50 µl were added to each embryo to reach the final concentration. […] Embryos that moved during video recording were discarded. […] One video per embryo from a minimum of 10 embryos in each treated group were necessary for statistical analysis.

humans = conditions: known effects in humans; cited from earlier work
zebrafish embryos [1] = assay: Automated angiogenesis assay (ISV formation), Flk1:copGFP embryos treated at 22-26 hpf, read at 48 hpf; type: in vivo; conditions: for IC50: manually quantified; for Angiog. inhibition: presence or absence of an anti-angiogenic effect, 0.01-100 µM; for Anti-angiogenic phenotype (ISVs / DLAV): treated at 24 hpf, checked at 48 hpf; for Efective concentration (minimum concentration that showed an effect): given when IC50 could not be calculated
Description: In the angiogenesis assay, the fluorescent images taken were processed using AxioVision 4.6.3 and a macro was developed to quantify an indirect measure of the area of the ISVs. […] However, we usually include a manual counting to offer a more detailed measurement of effect.
In the automatic analysis of angiogenesis, it is first necessary to perform a sequence of automated filtering functions on the image to extract information, define the region of interest (ROI), that in this case is the part of the tail containing the ISVs, and allow the measurement of the embryo length. Recovering a previous image, new filtering functions are applied to the ROI. A gradient image containing the ISVs, the DLAV (Dorsal Longitudinal Anastomotic Vessel), the PCV and the DA is created. Next, fluorescent areas that should not be quantified are discarded. Finally, only the areas comprised between the ISVs, the DLAV and the PCV or the DA are measured (Figure 4). In that way, when the vessels are incomplete or the DLAV is not present, an enclosed area is not present and therefore not measured.
The means obtained from the treated embryos were compared with the control mean. When statistically significant differences were detected a deeper analysis was done manually. In this case the parameters quantified were:
• The total number of ISVs present in the trunk of the embryos (from where the largest bulge of the yolk ends to the end of the tail). • Number of complete ISVs (reached the dorsal part of the embryo and formed the DLAV).
A curve of six concentrations (0.01, 0.1, 1, 10, 30 and 100 µM) was performed for all of them. […] IC50 was calculated when a clear dose-dependent anti-angiogenesis effect was detected. Otherwise, the minimum dose at which the inhibition of angiogenesis was observed is shown (Table 4).
At this time, chorions were removed with protease from Streptomyces griseus (Sigma-Aldrich) (1.5 mg/ml for 6 minutes) and the embryos were sorted and dispensed 1 per well in a 96 well assay plate. Each experimental condition was tested in a row with ten embryos. Embryos were dispensed in an average final volume of 90 µl of E3 media. 90 µl of the test items (DMSO and positive control KRN633 included) previously diluted 100 times were dispensed into each well of the assay plate containing the embryos to get the final volume of 180 µl and the desired final concentration.
The microscope scanned the wells by columns and a bright field image and a fluorescent image (2.5×magnification) were acquired per well. Then, the image analysis was performed and the result file generated.
Statistical analysis and graphical representation of the data were performed using SSPS (Statistical Package for the Social Sciences) software and Prism (Graph Pad Software) for IC50 calculations (non linear regression, sigmoidal dose-response with variable slope). […] In the angiogenesis assay, for comparisons between two groups, two-tailed t-test was used assuming unequal variances. For comparisons between more than two groups one-way analysis of variance followed by Dunnett’s post-test was applied to compare each data point with vehicle control.

zebrafish embryos [2] = assay: Embryo analysis at 72 hpf (blood circulation and ISVs development); type: in vivo; conditions: for Blood circulation / ISVs appearance: 72 hpf
Description: Embryos from the Flk1:copGFP line were treated with the indicated compounds at 22–23 hpf in 500 µl of E3 in p24 well plates (5 embryos per well). After 48 hours of treatment embryos were anesthetized with 10 µl Tricaine (final concentration 0.02%) and analyzed for the presence of blood circulation and ISVs development using a Leica M205 FA stereoscope equipped with a Hamamatsu C10600 camera.

[3] = Danio rerio, read-out: IC50 C.V. (complete number of vessels)
[4] = Danio rerio, read-out: IC50 T.V. (total number of vessels)
[5] = read-out: IC50 C.V. (complete number of vessels)
[6] = read-out: IC50 T.V. (total number of vessels)

## CCS(=O)(=O)N(C)[C@H]1c2cc(C#N)ccc2OC(C)(C)[C@@H]1O (racemic) [Chromanol 293b]
48 hpf zebrafish embryos
  Cardiotoxic effect in zebrafish: No effect
humans
  Cardiac effect in humans: QT-prolong.

## COc1cc2c(cc1O)CC[C@@H]1[C@@H]2CC[C@]2(C)[C@@H](O)CC[C@@H]12 [2-Methoxyestradiol]
Zebrafish embryos [1]; [3]
  IC50: 10.2 µM
Zebrafish embryos [1]; [4]
  IC50: 30.6 µM
Zebrafish embryos [1]
  Angiog. inhibition: Yes
  Anti-angiogenic phenotype (ISVs / DLAV): the formation of ISVs was perturbed with defective or total absence of sprouting

## Cc1cn[nH]c1.Cl [4-Methylpyrazole hydrochloride]
Zebrafish embryos [1]
  Angiog. inhibition: No

## COc1cc2ncnc(Nc3cccc(Cl)c3)c2cc1OC [AG1478]
Zebrafish embryos [1]; [5]
  IC50: 13 µM
Zebrafish embryos [1]; [6]
  IC50: 22.8 µM
Zebrafish embryos [1]
  Angiog. inhibition: Yes
  Anti-angiogenic phenotype (ISVs / DLAV): the formation of ISVs was perturbed with defective or total absence of sprouting; also recorded: lower number of incomplete ISVs

## COc1cc2ncc(-c3ccccc3)nc2cc1OC [AG-1296]
Zebrafish embryos [1]
  Efective concentration (minimum concentration that showed an effect): 20 µM
  Angiog. inhibition: Yes
  Anti-angiogenic phenotype (ISVs / DLAV): moderate effect that did not increase with higher doses
Zebrafish embryos [1]; listed as AG1296
  Anti-angiogenic phenotype (ISVs / DLAV): inhibit proper development of the DLAV; also recorded: thinner ISVs rather than incomplete vessel formation
Zebrafish embryos [2]
  Blood circulation: impaired blood circulation
  ISVs appearance: thinner ISVs that were disrupted in some cases

## CC(N)=O [Acetamide]
Zebrafish embryos [1]
  Angiog. inhibition: No

## CCCCc1oc2ccccc2c1C(=O)c1cc(I)c(OCCN(CC)CC)c(I)c1 [Amiodarone hydrochloride]
Zebrafish embryos [1]
  Angiog. inhibition: No

## CCCCc1oc2ccccc2c1C(=O)c1cc(I)c(OCCN(CC)CC)c(I)c1 [Amiodarone]
humans
  Cardiac effect in humans: QT-prolong.

## COc1ccc(CCN2CCC(Nc3nc4ccccc4n3Cc3ccc(F)cc3)CC2)cc1 [Astemizole]
humans
  Cardiac effect in humans: QT-prolong.

## CC(C)C[C@H](NC(=O)[C@@H](O)[C@H](N)Cc1ccccc1)C(=O)O [Bestatin]
Zebrafish embryos [1]
  Angiog. inhibition: No

## COc1cc(Nc2c(C#N)cnc3cc(OCCCN4CCN(C)CC4)c(OC)cc23)c(Cl)cc1Cl [Bosutinib]
Zebrafish embryos [1]
  Efective concentration (minimum concentration that showed an effect): 50 µM
  Angiog. inhibition: Yes
  Anti-angiogenic phenotype (ISVs / DLAV): moderate effect that did not increase with higher doses
Zebrafish embryos [2]
  Blood circulation: impaired blood circulation
  ISVs appearance: thinner ISVs that were disrupted in some cases

## COc1cc(N)c(Cl)cc1C(=O)NC1CCN(CCCOc2ccc(F)cc2)CC1OC (centres unmarked) [Cisapride]
humans
  Cardiac effect in humans: QT-prolong.

## C[C@H]1O[C@@H](O[C@H]2[C@@H](O)C[C@H](O[C@H]3[C@@H](O)C[C@H](O[C@H]4CC[C@@]5(C)[C@H](CC[C@@H]6[C@@H]5CC[C@]5(C)[C@@H](C7=CC(=O)OC7)CC[C@]65O)C4)O[C@@H]3C)O[C@@H]2C)C[C@H](O)[C@@H]1O [Digitoxin]
48 hpf zebrafish embryos; 48 hpf zebrafish embryos, 5 µM
  Predominant observed effect: N
48 hpf zebrafish embryos
  Cardiotoxic effect in zebrafish: Cardiac arrest

## COc1cccc2c1C(=O)c1c(O)c3c(c(O)c1C2=O)C[C@@](O)(C(=O)CO)C[C@@H]3O[C@H]1C[C@H](N)[C@H](O)[C@H](C)O1 [Doxorrubicin]
humans
  Cardiac effect in humans: No effect

## CC(C)C[C@H](NC(=O)[C@H]1O[C@@H]1C(=O)O)C(=O)NCCCCN=C(N)N [E64]
Zebrafish embryos [1]
  Angiog. inhibition: No

## CNCCC(Oc1ccc(C(F)(F)F)cc1)c1ccccc1 (centres unmarked) [Fluoxetine]
humans
  Cardiac effect in humans: Arrhythmia

## O=C(O)P(=O)(O)O [Foscarnet]
48 hpf zebrafish embryos
  Cardiotoxic effect in zebrafish: Bradycardia
humans
  Cardiac effect in humans: Bradycardia

## CO[C@@H]1[C@H](OC(=O)/C=C/C=C/C=C/C=C/C(=O)O)CC[C@]2(CO2)[C@H]1[C@@]1(C)O[C@@H]1CC=C(C)C [Fumagillin]
Zebrafish embryos [1]
  Angiog. inhibition: not detected and No

## COC(=O)c1ccc(O)c(NC(=O)COc2ccc(C34CC5CC(CC(C5)C3)C4)cc2)c1 [HIF-1 Inhibitor]
Zebrafish embryos [1]
  Angiog. inhibition: No
Zebrafish embryos [1]; listed as Hif-1 inhibitor
  Angiog. inhibition: not detected

## O=C1Nc2ccccc2/C1=C1/Nc2ccccc2/C1=N\O [Indirubin-3̀-oxime]
Zebrafish embryos [1]; [5]
  IC50: 4.2 µM
Zebrafish embryos [1]; [6]
  IC50: 18.3 µM
Zebrafish embryos [1]
  Angiog. inhibition: Yes
  Anti-angiogenic phenotype (ISVs / DLAV): the formation of ISVs was perturbed with defective or total absence of sprouting

## CCCNC(=O)Nc1ccc(Oc2ncnc3cc(OC)c(OC)cc23)cc1Cl [KRN633]
Zebrafish embryos [1]; [3]
  IC50: 0.026 µM
Zebrafish embryos [1]; [4]
  IC50: 0.035 µM
Zebrafish embryos [1]
  Angiog. inhibition: Yes
  Anti-angiogenic phenotype (ISVs / DLAV): the formation of ISVs was perturbed with defective or total absence of sprouting

## O=C(c1ccc(F)cc1)C1CCN(CCn2c(=O)[nH]c3ccccc3c2=O)CC1 [Ketanserin]
humans
  Cardiac effect in humans: Bradycardia

## CS(=O)(=O)CCNCc1ccc(-c2ccc3ncnc(Nc4ccc(OCc5cccc(F)c5)c(Cl)c4)c3c2)o1 [Lapatinib]
humans
  Cardiac effect in humans: No effect

## CCN(CC)CC(=O)Nc1c(C)cccc1C [Lidocaine]
humans
  Cardiac effect in humans: Bradycardia

## CC(=O)N[C@@H](CS)C(=O)O [N-Acetyl-L-cysteine]
Zebrafish embryos [1]
  Angiog. inhibition: No

## CS(=O)(=O)Nc1ccc([N+](=O)[O-])cc1OC1CCCCC1 [NS-398]
Zebrafish embryos [1]
  Efective concentration (minimum concentration that showed an effect): 30 µM
  Angiog. inhibition: Yes
  Anti-angiogenic phenotype (ISVs / DLAV): moderate effect that did not increase with higher doses
Zebrafish embryos [2]; treatment to 72 hpf at the 48 hpf doses which inhibited angiogenesis
  Lethality: lethal

## Cn1c(=O)n(-c2ccc(C(C)(C)C#N)cc2)c2c3cc(-c4cnc5ccccc5c4)ccc3ncc21 [NVP-BEZ235]
Zebrafish embryos [1]
  Efective concentration (minimum concentration that showed an effect): 10 µM
  Angiog. inhibition: Yes
  Anti-angiogenic phenotype (ISVs / DLAV): moderate effect that did not increase with higher doses
Zebrafish embryos [2]
  Blood circulation: impaired blood circulation
  ISVs appearance: thinner ISVs that were disrupted in some cases

## CN1CCC[C@H]1c1cccnc1 [Nicotine]
48 hpf zebrafish embryos
  Cardiotoxic effect in zebrafish: Bradycardia
humans
  Cardiac effect in humans: Bradycardia

## CCOC(=O)C1=C(C)NC(C)=C(C(=O)OC)C1c1cccc([N+](=O)[O-])c1 (centres unmarked) [Nitrendipine]
humans
  Cardiac effect in humans: Cardiac arrest

## Nc1nc(OCc2ccccc2)c2nc[nH]c2n1 [O6-benzylguanine]
Zebrafish embryos [1]
  Angiog. inhibition: No

## COc1cc(OC)cc(-c2cc3cnc(N)nc3nc2NC(=O)NC(C)(C)C)c1 [PD166866]
Zebrafish embryos [1]; [5]
  IC50: 16 µM
Zebrafish embryos [1]; [6]
  IC50: 43.9 µM
Zebrafish embryos [1]
  Angiog. inhibition: Yes
  Anti-angiogenic phenotype (ISVs / DLAV): the formation of ISVs was perturbed with defective or total absence of sprouting; also recorded: strong angiogenesis inhibition

## COc1cc2nccc(Oc3ccc(NC(=S)NC(=O)c4ccccc4C)cc3)c2cc1OC [PDGFR tyr kin inhibitor V]
Zebrafish embryos [1]; [5]
  IC50: 0.14 µM
Zebrafish embryos [1]; [6]
  IC50: 0.19 µM
Zebrafish embryos [1]
  Angiog. inhibition: Yes
Zebrafish embryos [1]; listed as PDGFR tyrosine kinase inhibitor
  Anti-angiogenic phenotype (ISVs / DLAV): the formation of ISVs was perturbed with defective or total absence of sprouting
Zebrafish embryos [1]; listed as PDGFR tyrosine kinase inhibitor V
  Anti-angiogenic phenotype (ISVs / DLAV): strong angiogenesis inhibition

## CC[C@@H]1C(=O)OC[C@@H]1Cc1cncn1C [Pilocarpine]
humans
  Cardiac effect in humans: No effect

## O=c1[nH]c2ccccc2n1C1CCN(CCCC(c2ccc(F)cc2)c2ccc(F)cc2)CC1 [Pimozide]
humans
  Cardiac effect in humans: QT-prolong.

## Cc1nc2n(c(=O)c1CCN1CCC(c3noc4cc(F)ccc34)CC1)CCCC2 [Risperidone]
humans
  Cardiac effect in humans: QT-prolong.

## N#Cc1cc2c(OCC(O)CN3CCN(C(c4ccccc4)c4ccccc4)CC3)cccc2[nH]1 (centres unmarked) [SDZ-201106]
48 hpf zebrafish embryos
  Cardiotoxic effect in zebrafish: 2∶1 arrhythmia and type 2∶1 arrhythmias and Arrhythmia 2∶1
humans
  Cardiac effect in humans: QT-prolong.

## O=C1NCCN1CCN1CCC(c2cn(-c3ccc(F)cc3)c3ccc(Cl)cc23)CC1 [Sertindol]
humans
  Cardiac effect in humans: QT-prolong.

## CC(C)(C)c1ccc(C(O)CCCN2CCC(C(O)(c3ccccc3)c3ccccc3)CC2)cc1 (centres unmarked) [Terfenadine]
48 hpf zebrafish embryos; tested at 0.1, 1, 5, 10, 20 and 50 µM
  Concentration at which detected as potential QT-prolongation inducer: 5 µM

## CC(CC(c1ccccc1)c1ccccc1)NC(C)(C)C (centres unmarked) [Terodiline]
48 hpf zebrafish embryos
  Cardiotoxic effect in zebrafish: Arrhythmia 2∶1
humans
  Cardiac effect in humans: QT-prolong.

## C[C@]12CC[C@H]3[C@@H](CCC4=CC(=O)CC[C@@]43C)[C@@H]1CC[C@@H]2O [Testosterone]
48 hpf zebrafish embryos
  Cardiotoxic effect in zebrafish: Bradycardia
humans
  Cardiac effect in humans: Bradycardia

## COc1ccc2cc(-c3nc(-c4ccc([S+](C)[O-])cc4)[nH]c3-c3ccncc3)ccc2c1 (centres unmarked) [Tie2 Kinase inhibitor]
Zebrafish embryos [1]
  Angiog. inhibition: No
Zebrafish embryos [1]; listed as Tie-2 kinase inhibitor
  Angiog. inhibition: not detected

## CC(C)(C)NC[C@H](O)COc1nsnc1N1CCOCC1 [Timolol]
humans
  Cardiac effect in humans: Bradycardia

## N#C/C(=C\c1ccc(O)c(O)c1)C(=O)NCc1ccccc1 [Tyrphostin AG490]
Zebrafish embryos [1]
  Angiog. inhibition: No

## COc1cc2c(Nc3ccc(Br)cc3F)ncnc2cc1OCC1CCN(C)CC1 [ZD6474 (Vandetanib), Vandetanib]
Zebrafish embryos [1]
  Efective concentration (minimum concentration that showed an effect): 100 µM
  Angiog. inhibition: Yes
  Anti-angiogenic phenotype (ISVs / DLAV): the formation of ISVs was perturbed with defective or total absence of sprouting

## O=C1Cc2cc(CCN3CCN(c4nsc5ccccc45)CC3)c(Cl)cc2N1 [Ziprasidone]
humans
  Cardiac effect in humans: QT-prolong.

## N.N.[Cl][Pt][Cl] [cis-Diammineplatinum(II) dichloride]
Zebrafish embryos [1]
  Angiog. inhibition: No
